Key:
Type in all cases: in vivo, human
[1] = tested on: patients suffering from venous insufficiency from minor to severe; assay: QoL survey (CIVIQ-20) after 3 or 4 treatments with diluted polidocanol
Experimental: A commercially available polidocanol solution (Atossisclerol®) was diluted to 0.05% with a physiological saline solution. A 1.4% sodium bicarbonate solution was then added in order to obtain a final concentration of 0.06%. The patients, 80% of which were female between 18 and 82 years of age suffering from venous insufficiency from minor to severe, were subjected to treatment after obtaining their free and informed consent.
Before the treatment, about 100 patients were subjected to a survey in order to assess their quality of life and to evaluate possible variations of the phlogistic/inflammatory overall state, of the venous microcirculation and circulation functionality, and also, more in general, of the skin trophism.
The long term systemic effects were evaluated via a survey given to patients after 3 or 4 treatments with diluted polidocanol.
In particular, they were asked to fill out a survey (CIVIQ-20) according to the criteria defined in Launois R. et al “Construction and validation of a quality of life questionnaire in chronic lower limb venous insufficiency (CIVIQ), Qual. Life Res., 1996, 5(6):539-554.
The survey contained the questions summarized hereinbelow, with answers indexed with values from 0 to 4 (0 if the feeling of discomfort described by the question was not applicable and from 1 to 4 if it was applicable with increasing intensity). Hereinbelow are collected the activities which turned out to be improved after the treatment: • 1) During the last 4 weeks have you felt pain in the hips or legs and with what intensity? In 14% of cases a decrease in hip pain was observed after treatment with polidocanol according to the invention. • 2) During the last 4 weeks have you had troubles in the routine work activities, due to troubles with the lower limbs? In 75% cases the patients could note a better condition during routine work activity • 3) During the last 4 weeks have you had troubles sleeping due to troubles with your legs? With what frequency? 37% better sleeping conditions. No troubles. • 4) During the last 4 weeks have you had troubles in the following activities due to troubles with your legs? • a. Remaining standing for a long time. Improves in 87% • b. Climbing several flights of stairs. • c. Crouching kneeling down. Improves • d. Walking at a brisk pace. • e. Traveling by car, bus, plane. Improves in 85% • f. Performing housekeeping tasks (ironing, walking around in the kitchen, etc.). Improves in 85% • g. Going out at night. Improves in 85% • h. Playing sports • 5) Given that troubles with the legs can also affect moods, it was asked if during the last 4 weeks they had noticed troubles such as: • a. Nervousness • b. Quick fatigue • c. Feeling of oppression • d. Excessive caution • e. Embarrassment in showing off the legs. Improves in 90% • f. Irritability • g. Feeling of being handicapped • h. Morning fatigue. Improves in 95% • i. Not feeling like going out. Improves in 75%.

[2] = tested on: patients suffering from venous insufficiency from minor to severe; assay: Likert survey on the "inflammatory" state in treated subjects
Experimental: A commercially available polidocanol solution (Atossisclerol®) was diluted to 0.05% with a physiological saline solution. A 1.4% sodium bicarbonate solution was then added in order to obtain a final concentration of 0.06%. […] To the questions on the quality of life, 10 more specific questions were added in order to assess possible variations of the “inflammatory” state (n=100 patients) after the treatment. The survey was based on the indications of: “Evaluation by Likert-type scale 4-point (0-absent, 1-moderate, 2-severe and 3-very severe)” Elleuch et al. Adv Ther. 2016 September; 33(9):1536-49. […] The survey was tailored on the Likert scale and aimed at evaluating the reduction of a number of symptoms related to chronic phlogosis, such as arthrosic or arthritis manifestations (both generic and autoimmune) with particular reference to articular mobility and pain, in subjects not suffering from full-blown diseases and apparently normal. The answers were indexed according to a scale from 0 to 3 (or from 0 to 2). Table 1 summarizes the percent individuals reporting an improvement of 50% after 4 or 15 treatments according to the invention, by self-assessment according to the Liked scale described above, for each of the following sign or symptom: […]

subject with psoriasis = assay: Skin rashes in a subject with psoriasis after a single treatment; settings: pictures at T=0 and after 30 days (FIG. 3)
Experimental: FIG. 3. Treatment of peripheral venous insufficiency in a subject with psoriasis. The subject was treated with a single dose of diluted polidocanol 0.1%. Pictures were taken at T=0 (panel A) and after 30 days (panel B).

[3] = % of patients, n=100, after at least 4-5 treatments
[4] = after several treatments (12-14)
[5] = compared to the previous year, n=100
[6] = up to 2 months after the treatment, n=100

## Polidocanol [diluted polidocanol]
[1]; CIVIQ-20 question 1, after 3 or 4 treatments
  cases with decrease in hip pain: 14%
[1]; CIVIQ-20 question 2
  cases with better condition during routine work activity: 75%
[1]; CIVIQ-20 question 3
  better sleeping conditions: 37%
[1]; CIVIQ-20 question 4a
  Remaining standing for a long time, improves: 87%
[1]; CIVIQ-20 question 4c
  Crouching kneeling down: Improves
[1]; CIVIQ-20 question 4e
  Traveling by car, bus, plane, improves: 85%
[1]; CIVIQ-20 question 4f
  Performing housekeeping tasks, improves: 85%
[1]; CIVIQ-20 question 4g
  Going out at night, improves: 85%
[1]; CIVIQ-20 question 5e
  Embarrassment in showing off the legs, improves: 90%
[1]; CIVIQ-20 question 5i
  Not feeling like going out, improves: 75%
[1]; CIVIQ-20 question 5h
  Morning fatigue, improves: 95%
[1]; answers after vs before treatment
  cases with improved quality of life overall: 87%
[2]; 4 treatments, 100 individuals
  1. Articular mobility, % individuals reporting an improvement of 50%: 78%
  2. Reduction of pain, % individuals reporting improvement: 68%
  3. Reduction of symptoms, % individuals reporting improvement: 30%
  4. Skin trophism, % individuals reporting improvement: 87%
  5. Hair, % individuals reporting improvement: 90%
  6. Reduction of infections, % individuals reporting improvement: 70%
  7. Feeing of wellness, % individuals reporting improvement: 30%
  8. Feeling of lightness (lower limbs), % individuals reporting improvement: 70%
  9. Improvement of "cellulitis", % individuals reporting improvement: 54%
  10. Improvement of sleep-wake rythm, % individuals reporting improvement: 30%
  Don't feel stopping treatment, % individuals: 26%
[2]; 15 treatments, 200 individuals
  1. Articular mobility, % individuals reporting an improvement of 50%: 90%
  2. Reduction of pain, % individuals reporting improvement: 82%
  3. Reduction of symptoms, % individuals reporting improvement: 60%
  4. Skin trophism, % individuals reporting improvement: 98%
  5. Hair, % individuals reporting improvement: 95%
  6. Reduction of infections, % individuals reporting improvement: 85%
  7. Feeing of wellness, % individuals reporting improvement: 70%
  8. Feeling of lightness (lower limbs), % individuals reporting improvement: 98%
  9. Improvement of "cellulitis", % individuals reporting improvement: 86%
  10. Improvement of sleep-wake rythm, % individuals reporting improvement: 56%
  Don't feel stopping treatment, % individuals: 56%
[2]; % of patients, n=100
  Feeling of lightness in the lower limbs, 0: no variations: 2%
  Feeling of lightness in the lower limbs, 1: lighter limbs: 70%
  Feeling of lightness in the lower limbs, 2: lighter limbs and no oedema in the evenings: 28%
  Improvement of "cellulitis", 1: lighter limbs: 54%
  Improvement of "cellulitis", 2: lighter limbs and no oedema in the evenings: 36%
  Improvement of skin trophism, 0: no variations: 5%
  Improvement of the hair trophism, results positive: 90%
  Improvement of the sleep-wake rhythm, 0: no variations: 63%
  Improvement of the sleep-wake rhythm, 1: I don't know: maybe: 30%
  Improvement of the sleep-wake rhythm, 2: I'm sleeping better and wake-up more rested: 7%
  Improvement of the so-called "cellulitis", 0: no variations: 10%
  Reduction of pain related to chronic inflammatory events, 0: no variations: 20%
  Reduction of pain, 1: 20% reduction of pain-related symptoms: 12%
  Reduction of pain, 2: 50% reduction of pain-related symptoms: 68%
  Reduction of pain, 3: 70% reduction of pain-related symptoms: 0%
  Skin trophism, 1: slight improvement of the skin elasticity and of the trophism at the touch in the lower limbs: 87%
  Skin trophism, 2: slight improvement of the skin elasticity and of the trophism at the touch in the whole body: 60%
  Skin trophism, 3: improvement extended to the skin of the face: 16%
[2]; [3]
  Articular mobility, 0: no variations: 13%
  Articular mobility, 1: 20% mobility improvement: 7%
  Articular mobility, 2: 50% mobility improvement: 78%
  Articular mobility, 3: 70% mobility improvement: 2%
[2]; [4]
  cases with improved skin elasticity and smoother skin also in the face: 16%
  cases with improved skin elasticity and smoother skin in general: 60%
[2]; [5]
  Reduction of infective events, 0: no variations: 18%
  Reduction of infective events, 1: maybe less infective events: 12%
  Reduction of infective events, 2: definitely significant reduction: 70%
[2]; number of patients, n=12
  Reduction of symptoms, 1: 20% attenuation of manifestations related to skin and articular mobility: 5 N.
  Reduction of symptoms, 2: 50% attenuation of manifestations related to skin and articular mobility: 4 N.
  Reduction of symptoms, 3: 70% attenuation of manifestations related to skin and articular mobility: 1 N.
[2]; number of patients, n=12 (e.g. psoriasis, rheumatoid arthritis)
  Reduction of symptoms of chronic degenerative pathologies of immune and inflammatory genesis, 0: no variations: 2 N.
[2]; [6]
  Feeling of well-being, 0: no variations: 12%
  Feeling of well-being, 1: I feel a bit better but I don't know: 32%
  Feeling of well-being, 2: I feel a bit better in the sense that I have a feeling of well-being: 30%
  Feeling of well-being, 3: life without the treatment is not the same, I feel the need to undergo treatment: 26%
Subject with psoriasis
  skin rashes in a subject with psoriasis: improve visibly the skin rashes
